Measurements from US20050100507A1, “Chemotactic peptide antagonists for imaging sites of inflammation” (Bracco Imaging S.p.A., priority 1998, published 2005).
One block for each compound: values may come before it. Square brackets hold non-standard residues; d marks the D form. Ends that are not written are not given here. Peptide text beside a SMILES is read from it. * marks the point of attachment. 3‑but‑1‑enoxycarbonyl = 3-but-1-enoxycarbonyl (N-terminal capping group); 2‑quinoxazoyl = 2-quinoxazoyl (N-terminal capping group); Adamantane1carbonyl = O=C(C12CC3CC(CC(C3)C1)C2)*; N‑phenyl‑N‑methylcarbamoyl = CN(C(=O)*)c1ccccc1; trans‑cinnamoyl = O=C(/C=C/c1ccccc1)*; Cyclopropanecarbonyl = O=C(C1CC1)*; iso‑Boc = not defined here; Nle = CCCC[C@H](N)C(=O)O; 2Furoyl = O=C(c1ccco1)*; Boc = CC(C)(C)OC(=O)*; For = O=C*

Legend:
[1] = tested on: elicited rat PMNs; format: cell-based; conditions: for EC50: 4 h; for % Control (1 uM) / % Control (10 uM): MPO release, PMNs without fMLF, ± S.E.M.; for % Control (1 uM): test peptide 1 uM; for % Control (10 uM): test peptide 10 uM
Description: (§1) Animals were sacrificed via administration of CO2 4 hours following peritoneal injection of 10 mL of 0.5% (w/v) oyster glycogen warmed to room temperature. Leukocyte harvesting via peritoneal lavage was performed using 20 mL of Hanks' buffered salt solution (HBSS−) containing 10 mM ethylene-diaminetetra-acetic acid (EDTA) disodium salt followed by a second lavage with 10 mL of HBSS− containing 10 mM EDTA. Exactly the same technique was performed on all rats with washes of the peritoneum prior to aspiration of samples approximating 1 minute. The volume of fluid recovered from each rat was approximately 20-25 mL and bloody lavages visibly containing significant red blood cell (RBC) populations were discarded.
(§2) Neutrophils isolated by peritoneal lavage were washed twice with 1 mL of HBSS− (without calcium chloride, magnesium chloride and magnesium sulfate) and centrifuged for ten minutes at 2000 rpms following each wash. PMNs utilized in functional assays were centrifuged at 25° C. while those used in binding assays were centrifuged at 4° C. to prevent internalization. A cold H2O RBC lysis was then performed with the addition of 9 mL of sterile ice-cold H2O and 1 mL of phosphate buffered saline (PBS) solution containing 0.1 M phosphate buffer, 0.027 M KCl and 1.37 M NaCl following resuspension of the sample in 1 mL of HBSS. Centrifugation was subsequently performed for ten minutes at 1600 rpms. White blood cell (WBC) differential stain containing saline, 2% acidic acid and phenol violet dye was used to identify the neutrophil population and trypan blue exclusion was used to determine viability of cells. As previously reported, 98% of leukocytes were neutrophils and approximately 95% of the cells were viable (Chen et al., 1996).
(§3) 0.5×10^6 PMNs per sample were incubated in 96-well Millipore Multiscreen 0.65 um filter plates. In a final volume of 150 uL, 50 uL of the respective fMLP analogues (10 uM to 1 pM) and/or fMLP (10 uM to 1.0 uM) were incubated with isolated PMNs pre-treated with cytochalasin B (5 ug/mL) for 10 minutes. Following a 30 minute incubation period at room temperature, the supernatant was collected into a 96-well polypropylene plate with the Millipore vacuum apparatus. A stock solution of o-phenylenediamine (OPD) was made to contain 2.5 mg of OPD, 5 ul of H2O2 and 10 mL HBSS+ and supernatant samples were subsequently incubated with 50 uL of OPD solution. The reaction was stopped after 2 minutes by the addition of 2.5M H2SO4. Photometric analysis was performed with the Thermomax Microplate Reader with optical density (O.D.490) values being read at a wavelength of 490 nm. Absorbance was measured against a blank containing 150 μl of HBSS+ which was subtracted from wells containing cells and the various treatments. MPO release was expressed as a percentage of the total release of myeloperoxidase in control wells containing cells ±fMLF.
(§4) The curve-fitting program Prism was used to calculate KD, IC50 and EC50 values by fitting data to the one-site binding equations A, B and C respectively. • A. Equation: One site binding (hyperbola) Y=Bmax*X/(KD+X) • B. Equation: One site competition Y=Bottom+(Top−Bottom)/(1+10^(X−LogIC50)); with x=log (concentration) and y=binding • C. […] Additionally, Graph fit software was used to perform Scatchard analysis of saturation binding data and to confirm KD and Bmax values generated by Prism software.

[2] = biological target: T1, Rat FPR (Rattus norvegicus, UniProt D4A7Q2); assay: Competition binding with 6 nM 3H-fMLF to elicited rat PMNs; conditions: 6 nM 3H-fMLF, result in words; for competition binding of N-terminal modified NleLFK peptides (FIG. 8): peptides at 1 uM and 10 uM
T1 construct: endogenous in cells; host or cells: glycogen-elicited peritoneal neutrophils (PMNs) of Sprague-Dawley rats
T1 sequence (D4A7Q2 1-355): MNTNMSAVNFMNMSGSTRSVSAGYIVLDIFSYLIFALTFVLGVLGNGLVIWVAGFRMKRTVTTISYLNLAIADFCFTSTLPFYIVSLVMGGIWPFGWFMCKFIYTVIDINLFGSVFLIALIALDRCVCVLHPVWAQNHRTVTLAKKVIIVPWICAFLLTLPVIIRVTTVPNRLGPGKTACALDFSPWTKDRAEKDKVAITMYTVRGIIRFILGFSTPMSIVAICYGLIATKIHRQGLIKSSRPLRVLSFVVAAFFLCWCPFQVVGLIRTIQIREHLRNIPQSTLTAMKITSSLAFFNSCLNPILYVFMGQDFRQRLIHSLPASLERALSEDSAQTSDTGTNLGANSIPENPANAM
Description: as §1, §2
Competition binding assays for N-terminal capping groups and Re-libraries were conducted with 6 nM ^3H-fMLP in addition to the unlabelled competing analogue added at 1.0 uM and 10 uM to each well. […] Total binding in the competition assays was assessed in the presence of 1.0×10^6 PMNs per sample while non-specific binding was determined in the absence of cells. Each condition was performed in quadruplicate. Total activity added to each sample was determined from cpms obtained from a sample containing 6 nM ^3H-fMLF. Data was expressed as specific binding in fmols and converted to percent of total ^3H-fMLF binding (% control).
After a 1 hour incubation period at 4° C., the samples were harvested with the Tomtec Mach III Cell Harvester by vacuum aspiration onto 1.5 um pore size Skatron glass-fibre filter mats pre-treated with 0.1% polyethylenimine (w/v) for approximately 24 hours. Sample wells received three consecutive 12 second washes with 0.9% saline solution and 5 mL of liquid scintillation fluid was added to collected filters. Filters were counted for 2 minutes in the Beckman β-counter following exposure to scintillation fluid for 15 hours. Data was expressed in terms of specific binding in fmols converted to percent of total ^3H-fMLF binding (% control).
as §4

[3] = tested on: elicited rat PMNs; assay: Myeloperoxidase release in elicited rat PMNs co-stimulated with 0.1 uM fMLF; format: cell-based; conditions: for antagonist function on MPO release in fMLF stimulated rat PMNs: 0.1 uM fMLF, inhibition at 10 uM, result in words; for % Control MPO release (1 uM capping group + 0.1 uM fMLF): 1 uM test peptide + 0.1 uM fMLF; for % Control MPO release (1 uM capping group + 0.1 uM fMLF) / % Control MPO Release (10 uM capping group + 0.1 uM fMLF): ± S.E.M.; for % Control MPO Release (10 uM capping group + 0.1 uM fMLF): 10 uM test peptide + 0.1 uM fMLF
Description: as §1, §2
as §3, with “In a final volume of 150 uL, 50 uL of the respective fMLP analogues (10 uM to 1 pM) and/or fMLP (10 uM to 1.0 uM) were incubated with isolated PMNs pre-treated with cytochalasin B (5 ug/mL) for 10 minutes.” left out

Compound: Capping Group 2: 2-methoxyacetyl N-terminal capping group attached to peptide NleLFK ({2‑methoxyacetyl}-[Nle]LFK)
- % Control (1 uM) [1]: 95.0 ± 15.7 % control
- % Control (10 uM) [1]: 97.1 ± 37.1 % control

Compound: Capping Group 3: Furoyl N-terminal capping group attached to peptide NleLFK (2Furoyl-[Nle]LFK)
- % Control (1 uM) [1]: 93.0 ± 9.0 % control
- % Control (10 uM) [1]: 102.5 ± 9.0 % control

Compound: Capping Group 4: Phenylthioacetyl N-terminal capping group attached to peptide NleLFK (phenylthioacetyl-[Nle]LFK)
- % Control (1 uM) [1]: 138.7 ± 28.6 % control
- % Control (10 uM) [1]: 119.7 ± 20.3 % control

Compound: Capping Group 7: 3-but-1-enoxycarbonyl N-terminal capping group attached to peptide NleLFK ({3‑but‑1‑enoxycarbonyl}-[Nle]LFK)
- % Control (1 uM) [1]: 133.8 ± 13.3 % control
- % Control (10 uM) [1]: 229.3 ± 13.3 % control

Compound: Capping Group 12: 2-acetamido-5-thiazolesulfonyl N-terminal capping group attached to peptide NleLFK ({2‑acetamido‑5‑thiazolesulfonyl}-[Nle]LFK)
- % Control (1 uM) [1]: 117.5 ± 7.8 % control
- % Control (10 uM) [1]: 175.5 ± 12.0 % control

Compound: Capping Group 13: Adamantylcarbonyl N-terminal capping group attached to peptide NleLFK (Adamantane1carbonyl-[Nle]LFK)
- competition binding of N-terminal modified NleLFK peptides (FIG. 8) [2]: did not significantly decrease the amount of ^3H-fMLF binding
- antagonist function on MPO release in fMLF stimulated rat PMNs [3]: exhibited antagonist function in fMLF stimulated cells
- % Control MPO release (1 uM capping group + 0.1 uM fMLF) [3]: 131.6 ± 30.9 % control
- % Control MPO Release (10 uM capping group + 0.1 uM fMLF) [3]: 128.6 ± 40.9 % control
- % Control (1 uM) [1]: 70.5 ± 14.9 % control
- % Control (10 uM) [1]: 71.7 ± 11.2 % control

Compound: Capping Group 15: trans-cinnamoyl N-terminal capping group attached to peptide NleLFK ({trans‑cinnamoyl}-[Nle]LFK)
- % Control (1 uM) [1]: 133.1 ± 10.3 % control
- % Control (10 uM) [1]: 195.8 ± 14.3 % control

Compound: N-t-BocMLFK: known antagonist used as standard in MPO release assay (Boc-MLFK) [reference compound]
- % Control (1 uM) [1]: 89.8 ± 32.5 % control
- % Control (10 uM) [1]: 86.7 ± 31.1 % control

Second part, led by results:

- EC50 [1]: 110 nM
Compound: CSCC[C@H](NC=O)C(=O)N[C@@H](CC(C)C)C(=O)N[C@@H](Cc1ccccc1)C(=O)O [fMLF, N-formyl-methionyl-leucyl-phenylalanine, reference compound]

- EC50 [1]: 140 nM
Compound: CSCC[C@H](NC=O)C(=O)N[C@@H](CC(C)C)C(=O)N[C@@H](Cc1ccccc1)C(=O)N[C@@H](CCCCN)C(=O)O [fMLFK, N-formyl-methionyl-leucyl-phenylalanyl-lysine, reference compound] (For-MLFK-OH)

- % Control MPO release (1 uM capping group + 0.1 uM fMLF) [3]: 171.2 ± 6.3 % control
- % Control MPO Release (10 uM capping group + 0.1 uM fMLF) [3]: 121.3 ± 23.9 % control
Compound: Capping Group 10: N-phenyl-N-methylcarbamoyl N-terminal capping group attached to peptide NleLFK ({N‑phenyl‑N‑methylcarbamoyl}-[Nle]LFK)
- competition binding of N-terminal modified NleLFK peptides (FIG. 8) [2]: did not significantly decrease the amount of ^3H-fMLF binding
- antagonist function on MPO release in fMLF stimulated rat PMNs [3]: exhibited antagonist function in fMLF stimulated cells
- % Control (1 uM) [1]: 94.7 ± 20.4 % control
- % Control (10 uM) [1]: 68.0 ± 17.4 % control

- antagonist function on MPO release in fMLF stimulated rat PMNs [3]: significant inhibition
- % Control MPO release (1 uM capping group + 0.1 uM fMLF) [3]: 323.2 ± 16.8 % control
- % Control MPO Release (10 uM capping group + 0.1 uM fMLF) [3]: 239.8 ± 9.0 % control
Compound: Capping Group 14: 2-quinoxazoyl N-terminal capping group attached to peptide NleLFK ({2‑quinoxazoyl}-[Nle]LFK)
- % Control (1 uM) [1]: 117.2 ± 18.6 % control
- % Control (10 uM) [1]: 129.8 ± 6.0 % control

- competition binding of N-terminal modified NleLFK peptides (FIG. 8) ([2]; listed as 17): do not nullify binding affinity
- competition binding of N-terminal modified NleLFK peptides (FIG. 8) ([2]; listed as cycloproylcarbonyl-NleLFK): inhibit ^3H-fMLF binding
Compound: cycloproylcarbonyl-NleLFK (Cyclopropanecarbonyl-[Nle]LFK) [Capping Group 17]
- inhibition of 3H-fMLF binding at 10 uM compared with iso-BocMLFK (FIG. 8) ([2]; peptide 10 uM): inhibited ^3H-fMLF binding to a degree comparable with known antagonist iso-BocMLFK
- % Control (1 uM) [1]: 108.0 ± 14.5 % control
- % Control (10 uM) [1]: 91.8 ± 16.3 % control

- % Control MPO release (1 uM capping group + 0.1 uM fMLF) [3]: 215.4 ± 66.3 % control
- % Control MPO Release (10 uM capping group + 0.1 uM fMLF) [3]: 179.9 ± 50.6 % control
Compound: iso-BocMLFK: known antagonist, fMLP peptide analogue synthesized in-house ({iso‑Boc}-MLFK; reading uncertain) [reference compound]
- antagonist function on MPO release in fMLF stimulated rat PMNs [3]: significantly inhibiting fMLF-stimulated MPO release
- % Control (1 uM) [1]: 99.6 ± 16.5 % control
- % Control (10 uM) [1]: 94.7 ± 20.2 % control
